Among the data in patent publication US20240208992A1, “MACROCYCLES AS CFTR MODULATORS” (Idorsia Pharmaceuticals Ltd, priority 2021, published 2024) are EC50 and Emax values, retold here.

Structures are written as SMILES.

In the assay the target is human F508del-CFTR (Homo sapiens, UniProt P13569, DEL508-508). The assay is described as follows: F508del-CFTR cell surface expression (corrector activity), DiscoveRx ß-galactosidase complementation chemiluminescence assay in recombinant U2OS cell line.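 For all read-outs here: U2OS cells co-expressing ProLink-tagged F508del-CFTR and a membrane-anchored enzyme acceptor, where more surface CFTR restores β-galactosidase activity measured by chemiluminescence.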 To be noted: U2OS cell line, 16h compound incubation; for EC50: EC50, F508del-CFTR cell surface expression, geomean values; for Emax: U2OS, in relation to the Emax of the corrector lumacaftor (=100%), arithmetic mean values.
human F508del-CFTR, sequence (P13569 with tags, fused parts or gaps DEL508-508): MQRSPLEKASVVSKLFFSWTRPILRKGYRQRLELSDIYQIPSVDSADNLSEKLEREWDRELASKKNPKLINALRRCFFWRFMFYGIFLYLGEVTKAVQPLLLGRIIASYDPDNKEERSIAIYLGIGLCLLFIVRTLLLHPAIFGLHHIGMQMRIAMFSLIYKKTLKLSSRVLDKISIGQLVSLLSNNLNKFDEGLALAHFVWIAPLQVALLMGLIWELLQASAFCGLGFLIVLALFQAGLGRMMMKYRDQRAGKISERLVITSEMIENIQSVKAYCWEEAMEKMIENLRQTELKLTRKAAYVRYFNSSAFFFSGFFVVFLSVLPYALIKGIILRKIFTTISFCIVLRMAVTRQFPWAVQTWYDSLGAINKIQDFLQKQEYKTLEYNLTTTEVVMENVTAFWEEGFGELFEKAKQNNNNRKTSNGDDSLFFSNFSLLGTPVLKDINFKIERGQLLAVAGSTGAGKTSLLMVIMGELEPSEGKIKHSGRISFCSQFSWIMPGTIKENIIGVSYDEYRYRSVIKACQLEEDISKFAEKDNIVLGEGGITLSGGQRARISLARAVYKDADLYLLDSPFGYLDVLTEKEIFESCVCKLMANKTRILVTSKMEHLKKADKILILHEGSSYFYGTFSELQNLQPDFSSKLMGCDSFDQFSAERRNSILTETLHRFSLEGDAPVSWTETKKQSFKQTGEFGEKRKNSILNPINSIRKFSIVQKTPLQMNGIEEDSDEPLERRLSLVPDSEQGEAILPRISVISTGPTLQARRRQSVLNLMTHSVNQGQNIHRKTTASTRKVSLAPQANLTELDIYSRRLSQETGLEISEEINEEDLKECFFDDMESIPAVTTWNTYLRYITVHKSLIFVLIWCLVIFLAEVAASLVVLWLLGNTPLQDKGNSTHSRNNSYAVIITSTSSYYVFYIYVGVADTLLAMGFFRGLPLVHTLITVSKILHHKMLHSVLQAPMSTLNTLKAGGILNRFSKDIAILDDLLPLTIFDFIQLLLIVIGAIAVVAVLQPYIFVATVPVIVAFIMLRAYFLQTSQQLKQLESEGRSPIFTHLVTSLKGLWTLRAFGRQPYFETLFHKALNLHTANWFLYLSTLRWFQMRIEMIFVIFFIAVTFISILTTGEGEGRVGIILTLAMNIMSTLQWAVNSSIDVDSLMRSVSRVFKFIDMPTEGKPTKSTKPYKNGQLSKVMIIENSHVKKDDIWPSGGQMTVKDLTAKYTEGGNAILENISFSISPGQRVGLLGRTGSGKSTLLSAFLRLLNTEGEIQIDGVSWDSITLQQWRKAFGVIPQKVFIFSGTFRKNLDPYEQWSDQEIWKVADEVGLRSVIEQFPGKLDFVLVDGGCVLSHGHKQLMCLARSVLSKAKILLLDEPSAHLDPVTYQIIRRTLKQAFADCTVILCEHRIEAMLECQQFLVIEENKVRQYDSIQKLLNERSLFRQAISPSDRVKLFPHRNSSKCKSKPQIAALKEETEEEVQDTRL

With `COc1cccc2c1C(=O)N[C@H](C(=O)NCCc1ccncn1)CC(=O)N(C)[C@@H](CC(C)C)C(=O)N(CCC1CCCCC1)CC(=O)N[C@H](Cc1ccccc1)CO2` [Example 19, (3R,9S,13S)-3-benzyl-7-(2-cyclohexylethyl)-9-isobutyl-16-methoxy-10-methyl-5,8,11,15-tetraoxo-N-(2-(pyrimidin-4-yl)ethyl)-2,3,4,5,6,7,8,9,10,11,12,13,14,15-tetradecahydrobenzo[p][1]oxa[4,7,10,14]tetraazacycloheptadecine-13-carboxamide], the EC50 – broadly, the concentration at which the effect is half-maximal – was 743 nM and the Emax – broadly, the size of the effect at its maximum, as opposed to the concentration needed – worked out at 125%.
Taken in the same sequence, the figures for `COc1cccc2c1C(=O)N[C@H](C(=O)NCCc1cncnc1)CC(=O)N(C)[C@@H](CC(C)C)C(=O)N(CCC1CCCCC1)CC(=O)N[C@H](Cc1ccccc1)CO2` [Example 20, (3R,9S,13S)-3-benzyl-7-(2-cyclohexylethyl)-9-isobutyl-16-methoxy-10-methyl-5,8,11,15-tetraoxo-N-(2-(pyrimidin-5-yl)ethyl)-2,3,4,5,6,7,8,9,10,11,12,13,14,15-tetradecahydrobenzo[p][1]oxa[4,7,10,14]tetraazacycloheptadecine-13-carboxamide] were 721 nM and 102%.
On the same counts, the results for `COc1cccc2c1C(=O)N[C@H](C(=O)NCCCOC(F)F)CC(=O)N(C)[C@@H](CC(C)C)C(=O)N(CCC1CCCCC1)CC(=O)N[C@H](Cc1ccccc1)CO2` [Example 21, (3R,9S,13S)-3-benzyl-7-(2-cyclohexylethyl)-N-(3-(difluoromethoxy)propyl)-9-isobutyl-16-methoxy-10-methyl-5,8,11,15-tetraoxo-2,3,4,5,6,7,8,9,10,11,12,13,14,15-tetradecahydrobenzo[p][1]oxa[4,7,10,14]tetraazacycloheptadecine-13-carboxamide] are 350 nM and 108%.
With `COCCOCCNC(=O)[C@@H]1CC(=O)N(C)[C@@H](CC(C)C)C(=O)N(CCC2CCCCC2)CC(=O)N[C@H](Cc2ccccc2)COc2cccc(OC)c2C(=O)N1` [Example 22, (3R,9S,13S)-3-benzyl-7-(2-cyclohexylethyl)-9-isobutyl-16-methoxy-N-(2-(2-methoxyethoxy)ethyl)-10-methyl-5,8,11,15-tetraoxo-2,3,4,5,6,7,8,9,10,11,12,13,14,15-tetradecahydrobenzo[p][1]oxa[4,7,10,14]tetraazacycloheptadecine-13-carboxamide], the EC50 was 600 nM and the Emax was 104%.
Turning to `CC(C)C[C@H]1C(=O)N2CCCC[C@@H]2C(=O)N[C@H](Cc2ccccc2)COc2ccc3ncn(C)c3c2C(=O)N[C@H](C(=O)NCCc2nc3c(s2)CCC3)CC(=O)N1C` [Example 29, (8S,12S,18aR,21R)-21-benzyl-N-(2-(5,6-dihydro-4H-cyclopenta[d]thiazol-2-yl)ethyl)-12-isobutyl-5,11-dimethyl-6,10,13,19-tetraoxo-6,7,8,9,10,11,12,13,16,17,18,18a,19,20,21,22-hexadecahydro-5H,15H-imidazo[4′,5′:5,6]benzo[1,2-p]pyrido[2,1-f][1]oxa[4,7,10,14]tetraazacycloheptadecine-8-carboxamide], the EC50 was found to be 439 nM and the Emax was found to be 140%.
Regarding `CC(C)C[C@H]1C(=O)N2CCCC[C@@H]2C(=O)N[C@H](Cc2ccccc2)COc2ccc3ncn(C)c3c2C(=O)N[C@H](C(=O)NCCc2noc3ccccc23)CC(=O)N1C` [Example 30, (8S,12S,18aR,21R)-N-(2-(benzo[d]isoxazol-3-yl)ethyl)-21-benzyl-12-isobutyl-5,11-dimethyl-6,10,13,19-tetraoxo-6,7,8,9,10,11,12,13,16,17,18,18a,19,20,21,22-hexadecahydro-5H,15H-imidazo[4′,5′:5,6]benzo[1,2-p]pyrido[2,1-f][1]oxa[4,7,10,14]tetraazacycloheptadecine-8-carboxamide], the EC50 amounted to 275 nM and the Emax was found to be 113%.
As for `CC(C)C[C@H]1C(=O)N2CCCC[C@@H]2C(=O)N[C@H](Cc2ccccc2)COc2ccc3ncn(C)c3c2C(=O)N[C@H](C(=O)NCCc2ccc(-n3nccn3)cc2)CC(=O)N1C` [Example 31, (8S,12S,18aR,21R)-N-(4-(2H-1,2,3-triazol-2-yl)phenethyl)-21-benzyl-12-isobutyl-5,11-dimethyl-6,10,13,19-tetraoxo-6,7,8,9,10,11,12,13,16,17,18,18a,19,20,21,22-hexadecahydro-5H,15H-imidazo[4′,5′:5,6]benzo[1,2-p]pyrido[2,1-f][1]oxa[4,7,10,14]tetraazacycloheptadecine-8-carboxamide], the half-maximal effective concentration (EC50) stood at 463 nM and the Emax was 111%.
Take `COc1cccc2c1OC[C@@H](NC(=O)[C@@H]1CC(=O)N(C)[C@@H](CC(C)C)C(=O)N3CCOC[C@@H]3C(=O)N[C@H](Cc3ccccc3)COc3ccc4ccccc4c3C(=O)N1)C2` [Example 32, (4aR,7R,18S,22S)-7-benzyl-22-isobutyl-N-(-8-methoxychroman-3-yl)-21-methyl-5,16,20,23-tetraoxo-1,2,4,4a,5,6,7,8,16,17,18,19,20,21,22,23-hexadecahydronaphtho[1,2-p][1,4]oxazino[3,4-f][1]oxa[4,7,10,14]tetraazacycloheptadecine-18-carboxamide]: the EC50 was 318 nM and the Emax is 146%.
In the case of `COc1cccc(OCCNC(=O)[C@@H]2CC(=O)N(C)[C@@H](CC(C)C)C(=O)N3CCOC[C@@H]3C(=O)N[C@H](Cc3ccccc3)COc3ccc4ccccc4c3C(=O)N2)c1` [Example 33, (4aR,7R,18S,22S)-7-benzyl-22-isobutyl-N-(2-(3-methoxyphenoxy)ethyl)-21-methyl-5,16,20,23-tetraoxo-1,2,4,4a,5,6,7,8,16,17,18,19,20,21,22,23-hexadecahydronaphtho[1,2-p][1,4]oxazino[3,4-f][1]oxa[4,7,10,14]tetraazacycloheptadecine-18-carboxamide], the EC50 is 255 nM and the Emax amounted to 141%.
For the compound `COc1ccc(OCCNC(=O)[C@@H]2CC(=O)N(C)[C@@H](CC(C)C)C(=O)N3CCOC[C@@H]3C(=O)N[C@H](Cc3ccccc3)COc3ccc4ccccc4c3C(=O)N2)cc1` [Example 34, (4aR,7R,18S,22S)-7-benzyl-22-isobutyl-N-(2-(4-methoxyphenoxy)ethyl)-21-methyl-5,16,20,23-tetraoxo-1,2,4,4a,5,6,7,8,16,17,18,19,20,21,22,23-hexadecahydronaphtho[1,2-p][1,4]oxazino[3,4-f][1]oxa[4,7,10,14]tetraazacycloheptadecine-18-carboxamide], the EC50 worked out at 260 nM and the Emax was determined as 121%.
Taken in the same sequence, the figures for `COc1cc2c(cc1CCNC(=O)[C@@H]1CC(=O)N(C)[C@@H](CC(C)C)C(=O)N3CCOC[C@@H]3C(=O)N[C@H](Cc3ccccc3)COc3ccc4ccccc4c3C(=O)N1)OCCO2` [Example 35, (4aR,7R,18S,22S)-7-benzyl-22-isobutyl-N-(2-(7-methoxy-2,3-dihydrobenzo[b][1,4]dioxin-6-yl)ethyl)-21-methyl-5,16,20,23-tetraoxo-1,2,4,4a,5,6,7,8,16,17,18,19,20,21,22,23-hexadecahydronaphtho[1,2-p][1,4]oxazino[3,4-f][1]oxa[4,7,10,14]tetraazacycloheptadecine-18-carboxamide] were 262 nM and 109%.
With `Cc1c(CCNC(=O)[C@@H]2CC(=O)N(C)[C@@H](CC(C)C)C(=O)N3CCOC[C@@H]3C(=O)N[C@H](Cc3ccccc3)COc3ccc4ccccc4c3C(=O)N2)c(Cl)cc2c1OCCO2` [Example 36, (4aR,7R,18S,22S)-7-benzyl-N-(2-(7-chloro-5-methyl-2,3-dihydrobenzo[b][1,4]dioxin-6-yl)ethyl)-22-isobutyl-21-methyl-5,16,20,23-tetraoxo-1,2,4,4a,5,6,7,8,16,17,18,19,20,21,22,23-hexadecahydronaphtho[1,2-p][1,4]oxazino[3,4-f][1]oxa[4,7,10,14]tetraazacycloheptadecine-18-carboxamide], the half-maximal effective concentration (EC50) was found to be 306 nM and the Emax is 120%.
In the case of `CC(C)C[C@H]1C(=O)N2CCOC[C@@H]2C(=O)N[C@H](Cc2ccccc2)COc2ccc3ccccc3c2C(=O)N[C@H](C(=O)NCCc2cc3c(cc2Cl)OCCO3)CC(=O)N1C` [Example 37, (4aR,7R,18S,22S)-7-benzyl-N-(2-(7-chloro-2,3-dihydrobenzo[b][1,4]dioxin-6-yl)ethyl)-22-isobutyl-21-methyl-5,16,20,23-tetraoxo-1,2,4,4a,5,6,7,8,16,17,18,19,20,21,22,23-hexadecahydronaphtho[1,2-p][1,4]oxazino[3,4-f][1]oxa[4,7,10,14]tetraazacycloheptadecine-18-carboxamide], the EC50 came to 122 nM and the Emax was determined as 205%.
On to `CC(C)C[C@H]1C(=O)N2CCOC[C@@H]2C(=O)N[C@H](Cc2ccccc2)COc2ccc3ccccc3c2C(=O)N[C@H](C(=O)NCCc2noc3ccccc23)CC(=O)N1C` [Example 38, (4aR,7R,18S,22S)-N-(2-(benzo[d]isoxazol-3-yl)ethyl)-7-benzyl-22-isobutyl-21-methyl-5,16,20,23-tetraoxo-1,2,4,4a,5,6,7,8,16,17,18,19,20,21,22,23-hexadecahydronaphtho[1,2-p][1,4]oxazino[3,4-f][1]oxa[4,7,10,14]tetraazacycloheptadecine-18-carboxamide], for which the EC50 was found to be 299 nM and the Emax was 191%.
Regarding `CC(C)C[C@H]1C(=O)N2CCOC[C@@H]2C(=O)N[C@H](Cc2ccccc2)COc2ccc3ccccc3c2C(=O)N[C@H](C(=O)NCCc2ccc3c(c2)OCCO3)CC(=O)N1C` [Example 39, (4aR,7R,18S,22S)-7-benzyl-N-(2-(2,3-dihydrobenzo[b][1,4]dioxin-6-yl)ethyl)-22-isobutyl-21-methyl-5,16,20,23-tetraoxo-1,2,4,4a,5,6,7,8,16,17,18,19,20,21,22,23-hexadecahydronaphtho[1,2-p][1,4]oxazino[3,4-f][1]oxa[4,7,10,14]tetraazacycloheptadecine-18-carboxamide], the EC50 was 415 nM and the Emax was 450%.
